Results reported in ChEMBL document CHEMBL1144201, “Design and synthesis of a series of meta aniline-based LFA-1 ICAM inhibitors” (Bioorg Med Chem Lett, 2008).

Experiments:
in vivo [1] = conditions: rat, po, 1 mg/kg
in vivo [2] = conditions: rat, 1 mg/kg
in vivo [3] = conditions: rat, 1 mg/kg; remark: listed apart in the source

Row | bioavailability (in vivo [1]) [%] | half-life (in vivo [2]) [h] | clearance (in vivo [3]) [mL/min/kg] | SMILES
1 | 13 | 1.8 | 8.3 | O=C(/C=C/c1ccc(Sc2cccc(N[C@H]3CC[C@@H](C(=O)O)CC3)c2)c(C(F)(F)F)c1C(F)(F)F)N1CCOCC1
2 | 32 | 7 | – | CC(C)N1CCC(Nc2cccc(Sc3ccc(/C=C/C(=O)N4CCOCC4)c(C(F)(F)F)c3C(F)(F)F)c2)CC1
3 | 27 | 4.5 | – | Nc1cccc(Sc2ccc(/C=C/C(=O)N3CCOCC3)c(C(F)(F)F)c2C(F)(F)F)c1
